The values below come from patent publication US12692257B2, “2,4,6-tri-substituted pyrimidine compounds as ATR kinase inhibitors” (BEIJING TIDE PHARMACEUTICAL CO., LTD., priority 2020, dated 2026).

The target of one test is ATR kinase (Homo sapiens, UniProt Q13535). Kind of test: Assay of ATR kinase activity (time-resolved fluorescence, phosphorylation of p53-derived protein). It is filed as biochemical. How it is done:
Biotinylated protein derived from p53 (Eurofins, art. No.: 14-952) was phosphorylated with ATR kinase. The amount of phosphorylated protein was determined by time-resolved fluorescence in this assay. The amount of phosphorylated protein was detected by anti-p53-phospho-(serine 15)-K-specific antibody (Cisbio, art. No.: 61GSTDLA) and d2 labeled anti-GST antibody (Cisbio, art. No. 61P08KAE). Before the assay, the following working solutions were formulated as required: 1×reaction buffer (20 mM HEPES PH8.0, 1% glycerol, 0.01% Brij-35), dilution buffer (20 mM HEPES PH8.0, 1% glycerol, 0.01% Brij-35, 5 mM DTT and 1% BSA), stop solution (20 mM HEPES PH8.0, 1% glycerol, 0.01% Brij-35, 250 mM EDTA), detection buffer (50 mM HEPES pH7.0, 150 mM NaCl, 267 mM KF, 0.1% sodium cholate, 0.01% Tween-20, 0.0125% sodium azide). The reagents used above were purchased from Sigma or Invitrogen, except for those whose manufacturers were mentioned.
Operations were as follows:
4× serially diluted compound solutions were prepared with 1× reaction buffer to give 9 compound solutions with different concentrations, and 2.5 μL of the 4× serially diluted compound solutions were added to a 384-well analysis plate (784075, Greiner). 4×p53 substrate working solution (40 nM) was prepared with 1× reaction buffer, and 2.5 μL of the 4×p53 substrate working solution was added to a 384-well analysis plate. 4×ATR/ATRIP working solution (12.8 ng/μL) was prepared with dilution buffer, and 2.5 μL of the 4×pATR/ATRIP working solution was added to a 384-well analysis plate. 4×ATP working solution (2 mM) was prepared with deionized water, and 2.5 μL of the 4×ATP working solution was added to a 384-well analysis plate. The plates were incubated at room temperature in dark for 30 minutes. 5 μL of stop solution was added to the 384 analysis plates. Finally, 5 μL of assay mixture (0.084 ng/μL Anti-phospho-p53(ser15)-K and 5 ng/μL Anti-GST-d2) was added to the 384 well analysis plates, and incubated at room temperature overnight. The fluorescence signal was detected with ENVISION (Perkinelmer) instrument (excitation wavelength: 320 nm, emission wavelength: 665 nm and 615 nm). The inhibition rate in each well was calculated by the fluorescence intensity value in each well:ER (Emission Ratio)=(Fluorescence intensity at 665 nm/Fluorescence intensity at 615 nm); inhibition rate=(ER of positive−ER of assay compound)/(ER of positive−ER of negative)×100%. IC50 values of compounds were calculated by standard software for parameter fitting (GraphPad Prism 6.0).

For the next test, the system named is MV4-11 (leukemia). The test is described as follows: Cell proliferation inhibition in vitro, CellTiter-Glo, MV4-11. The format is cell-based. The note with it: Homo sapiens; MV4-11 cells, 120 hours, CellTiter-Glo; read-out: MV4-11/IC50/μM. How it is done:
(§1) By detecting the effect of compounds on cell activity in vitro in tumor cell lines TOV21G (ovarian cancer) and MV4-11 (leukemia), the inhibitory effect of compounds on cell proliferation was studied in this assay.
(§2) TOV21G cells and MV4-11 cells were purchased from American Type Culture Collection (ATCC).
MV-4-11 cells were cultured in IMDM medium (containing 20% of FBS). About 10,000 cells were inoculated in each well of a 96-well culture plate, and treated by adding different concentrations (0-10 μM) of compounds to be assayed. Each group was assayed in triplicate. Blank wells (containing medium only) and control wells (inoculated cells without being treated with drug) were set. Cells were cultured for 120 hours. 40 μL of Cell Titer-Glo solutions were added to each well, and the cells were incubated with shaking for 20 min in the dark. 100 μL of solution was transferred from each well to a 96-well blank plate, and the luminescence value was read by Biotek Synergy HI multifunctional microplate reader. Inhibition rate (%)=100%×(control well−assay well)/(control well−blank well)
(In general: In ATP-based viability assays light output follows the ATP content of the culture.)

Another test concerns TOV21G (ovarian cancer). Kind of test: Cell proliferation inhibition in vitro, CellTiter-Glo, TOV21G. The format is cell-based. To be noted: Homo sapiens; TOV21G cells, 120 hours, CellTiter-Glo; read-out: TOV21G/IC50/μM. How it is done: as §1, §2
TOV21G cells were cultured in MCDB105/M199 medium (containing 15% of FBS), and used for assaying when the cell confluence reached 85% or more. About 1000 cells were inoculated in each well of a 96-well culture plate, and cultured for 24 hours. Different concentrations (0-10 μM) of compounds to be assayed were added to treat the cells. Each group was assayed in triplicate. Blank wells (containing medium only) and control wells (inoculated cells without being treated with drug) were set. Cells were cultured for 120 hours. 40 μL of Cell Titer-Glo solutions (Promega, #G7573) were added to each well, and the cells were incubated with shaking for 20 min in the dark. 100 μL of solution was transferred from each well to a 96-well blank plate (Corning, #3917), and the luminescence value was read by Biotek Synergy H1 multifunctional microplate reader.

Structures are written as SMILES.

Sequence of ATR kinase (Q13535 whole entry): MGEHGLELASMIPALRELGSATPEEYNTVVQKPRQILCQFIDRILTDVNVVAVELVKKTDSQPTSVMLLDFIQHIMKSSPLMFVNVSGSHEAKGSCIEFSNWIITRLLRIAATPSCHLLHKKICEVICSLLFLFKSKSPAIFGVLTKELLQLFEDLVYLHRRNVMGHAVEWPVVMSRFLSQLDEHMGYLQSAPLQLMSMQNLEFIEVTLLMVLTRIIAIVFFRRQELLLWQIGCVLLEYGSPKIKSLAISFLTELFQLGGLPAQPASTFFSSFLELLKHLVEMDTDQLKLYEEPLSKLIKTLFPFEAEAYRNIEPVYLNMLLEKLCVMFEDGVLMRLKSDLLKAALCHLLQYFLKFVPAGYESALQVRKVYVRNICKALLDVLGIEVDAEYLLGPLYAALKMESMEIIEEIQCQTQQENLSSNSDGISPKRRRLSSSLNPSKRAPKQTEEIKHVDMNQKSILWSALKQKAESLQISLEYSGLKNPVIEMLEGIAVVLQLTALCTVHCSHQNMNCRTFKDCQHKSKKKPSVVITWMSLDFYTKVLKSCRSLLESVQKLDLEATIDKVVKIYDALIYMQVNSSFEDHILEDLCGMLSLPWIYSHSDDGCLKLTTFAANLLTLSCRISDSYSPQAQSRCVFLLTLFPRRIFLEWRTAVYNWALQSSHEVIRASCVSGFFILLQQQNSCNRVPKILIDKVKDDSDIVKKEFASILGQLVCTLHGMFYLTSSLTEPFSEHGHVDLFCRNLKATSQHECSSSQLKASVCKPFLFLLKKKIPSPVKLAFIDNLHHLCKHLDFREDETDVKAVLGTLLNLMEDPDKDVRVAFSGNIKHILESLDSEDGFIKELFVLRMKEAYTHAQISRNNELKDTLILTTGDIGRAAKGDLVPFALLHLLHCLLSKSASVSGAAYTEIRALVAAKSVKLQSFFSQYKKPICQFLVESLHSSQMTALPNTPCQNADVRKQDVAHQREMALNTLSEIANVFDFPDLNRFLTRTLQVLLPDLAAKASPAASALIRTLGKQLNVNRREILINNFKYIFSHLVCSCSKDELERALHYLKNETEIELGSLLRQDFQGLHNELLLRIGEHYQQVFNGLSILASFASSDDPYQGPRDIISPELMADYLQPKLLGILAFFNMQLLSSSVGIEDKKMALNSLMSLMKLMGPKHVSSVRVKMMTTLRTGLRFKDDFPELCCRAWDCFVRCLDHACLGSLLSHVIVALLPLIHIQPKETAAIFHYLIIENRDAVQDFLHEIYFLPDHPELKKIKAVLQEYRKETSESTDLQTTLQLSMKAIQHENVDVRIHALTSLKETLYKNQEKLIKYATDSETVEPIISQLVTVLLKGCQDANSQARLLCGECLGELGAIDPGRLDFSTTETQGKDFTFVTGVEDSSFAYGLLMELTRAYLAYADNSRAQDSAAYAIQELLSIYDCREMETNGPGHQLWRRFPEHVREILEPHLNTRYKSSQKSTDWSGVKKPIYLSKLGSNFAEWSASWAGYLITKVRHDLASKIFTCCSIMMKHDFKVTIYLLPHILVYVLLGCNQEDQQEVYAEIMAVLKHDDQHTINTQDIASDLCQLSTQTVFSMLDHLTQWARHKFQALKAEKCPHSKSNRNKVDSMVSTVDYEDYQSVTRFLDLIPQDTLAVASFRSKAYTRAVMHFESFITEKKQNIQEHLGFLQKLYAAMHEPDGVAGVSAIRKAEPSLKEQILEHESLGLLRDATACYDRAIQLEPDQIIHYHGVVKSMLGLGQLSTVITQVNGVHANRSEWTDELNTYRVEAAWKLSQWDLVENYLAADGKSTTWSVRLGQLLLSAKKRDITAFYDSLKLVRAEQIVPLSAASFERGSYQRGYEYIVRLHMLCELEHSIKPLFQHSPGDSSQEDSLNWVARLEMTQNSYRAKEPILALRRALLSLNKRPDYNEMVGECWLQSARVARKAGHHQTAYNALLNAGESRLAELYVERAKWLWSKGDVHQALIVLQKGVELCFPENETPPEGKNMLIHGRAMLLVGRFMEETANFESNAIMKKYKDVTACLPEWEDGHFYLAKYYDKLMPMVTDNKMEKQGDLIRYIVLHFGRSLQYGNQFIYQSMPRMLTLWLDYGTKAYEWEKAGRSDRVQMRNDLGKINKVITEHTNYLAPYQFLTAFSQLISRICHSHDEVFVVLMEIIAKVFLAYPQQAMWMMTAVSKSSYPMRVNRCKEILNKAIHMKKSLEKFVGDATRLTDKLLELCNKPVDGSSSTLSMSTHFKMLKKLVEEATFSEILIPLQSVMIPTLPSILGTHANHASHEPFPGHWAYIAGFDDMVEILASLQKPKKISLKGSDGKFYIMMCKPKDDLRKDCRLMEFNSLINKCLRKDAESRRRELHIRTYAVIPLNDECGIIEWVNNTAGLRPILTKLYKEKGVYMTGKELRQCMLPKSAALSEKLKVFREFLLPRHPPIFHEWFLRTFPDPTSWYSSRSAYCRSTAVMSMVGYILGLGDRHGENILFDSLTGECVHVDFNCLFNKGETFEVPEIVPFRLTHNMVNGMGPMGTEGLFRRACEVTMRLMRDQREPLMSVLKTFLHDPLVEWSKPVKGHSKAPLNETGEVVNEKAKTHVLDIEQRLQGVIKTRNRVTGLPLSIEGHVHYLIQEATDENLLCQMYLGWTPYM
Sequence of ATR kinase (Q8WXE1 whole entry partner): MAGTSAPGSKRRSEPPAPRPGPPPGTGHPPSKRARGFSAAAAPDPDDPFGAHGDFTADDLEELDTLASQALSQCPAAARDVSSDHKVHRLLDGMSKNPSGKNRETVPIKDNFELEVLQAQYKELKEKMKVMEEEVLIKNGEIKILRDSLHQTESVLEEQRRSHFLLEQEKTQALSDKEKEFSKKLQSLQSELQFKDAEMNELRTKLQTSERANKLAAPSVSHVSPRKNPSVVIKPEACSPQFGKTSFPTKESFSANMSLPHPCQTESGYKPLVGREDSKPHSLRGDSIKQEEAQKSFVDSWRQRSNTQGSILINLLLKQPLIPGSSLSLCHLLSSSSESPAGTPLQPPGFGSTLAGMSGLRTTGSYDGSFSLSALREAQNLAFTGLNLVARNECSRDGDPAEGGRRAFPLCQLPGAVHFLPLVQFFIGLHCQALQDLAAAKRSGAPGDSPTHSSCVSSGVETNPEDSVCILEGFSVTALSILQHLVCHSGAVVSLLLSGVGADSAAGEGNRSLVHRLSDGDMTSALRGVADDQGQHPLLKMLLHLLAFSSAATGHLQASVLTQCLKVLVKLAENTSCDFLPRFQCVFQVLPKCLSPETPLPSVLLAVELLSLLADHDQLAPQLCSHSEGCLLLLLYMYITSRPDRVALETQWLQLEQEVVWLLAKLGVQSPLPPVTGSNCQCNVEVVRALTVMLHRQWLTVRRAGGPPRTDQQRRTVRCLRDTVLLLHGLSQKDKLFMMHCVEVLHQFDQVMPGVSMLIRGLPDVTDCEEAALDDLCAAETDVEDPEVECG

With `COc1cncc(-n2nc(C)c(-c3cc(N4CCOC[C@H]4C)nc(-c4cc(F)cc5[nH]ccc45)n3)c2C)c1` [Compound A1], the IC50 came out at 11 nM at ATR kinase and 0.658 µM in the test on MV4-11 (leukemia).
`Cc1nn(-c2ccncc2)c(C)c1-c1cc(N2CCOC[C@H]2C)nc(-c2cc(F)cc3[nH]ccc23)n1` [Compound A2]: the IC50 at ATR kinase is 8 nM; in the test with TOV21G (ovarian cancer), 0.397 µM; in the test on MV4-11 (leukemia), 0.635 µM.
On to `Cc1nn(-c2cccnc2)c(C)c1-c1cc(N2CCOC[C@H]2C)nc(-c2cc(F)cc3[nH]ccc23)n1` [Compound A4], for which the IC50 against ATR kinase amounted to 10 nM; in the test with TOV21G (ovarian cancer), 0.313 µM; in the test on MV4-11 (leukemia), 0.193 µM.
For `COc1ccc(-n2nc(C)c(-c3cc(N4CCOC[C@H]4C)nc(-c4cc(F)cc5[nH]ccc45)n3)c2C)cn1` [Compound A5], in that order: 30 nM, 0.647 µM and 0.778 µM.
For `Cc1nn(-c2ccc(F)nc2)c(C)c1-c1cc(N2CCOC[C@H]2C)nc(-c2cc(F)cc3[nH]ccc23)n1` [Compound A6], in that order: 14 nM, 0.423 µM and 0.656 µM.
For `Cc1nn(-c2ccc(=O)[nH]c2)c(C)c1-c1cc(N2CCOC[C@H]2C)nc(-c2cc(F)cc3[nH]ccc23)n1` [Compound A7], in that order: 6 nM, 0.33 µM and 0.1 µM.
As to `Cc1ncccc1-n1nc(C)c(-c2cc(N3CCOC[C@H]3C)nc(-c3cc(F)cc4[nH]ccc34)n2)c1C` [Compound A8], the figures for the IC50 on ATR kinase, in the test on TOV21G (ovarian cancer) and in the test with MV4-11 (leukemia) were 9 nM, 0.274 µM and 0.382 µM, respectively.
With `Cc1nn(-c2cncc(C#N)c2)c(C)c1-c1cc(N2CCOC[C@H]2C)nc(-c2cc(F)cc3[nH]ccc23)n1` [Compound A9], the IC50 was determined as 16 nM against ATR kinase, 0.28 µM in the test on TOV21G (ovarian cancer) and 0.198 µM in the test with MV4-11 (leukemia).
For `Cc1nn(-c2cnccc2Cl)c(C)c1-c1cc(N2CCOC[C@H]2C)nc(-c2cc(F)cc3[nH]ccc23)n1` [Compound A10], in that order: 20 nM, 0.556 µM and 0.206 µM.
For the compound `CCc1cncc(-n2nc(C)c(-c3cc(N4CCOC[C@H]4C)nc(-c4cc(F)cc5[nH]ccc45)n3)c2C)c1` [Compound A12], the values for the IC50 on ATR kinase and with MV4-11 (leukemia) were 36 nM and 0.801 µM, respectively.
As to `Cc1nn(-c2cncc(C(F)(F)F)c2)c(C)c1-c1cc(N2CCOC[C@H]2C)nc(-c2cc(F)cc3[nH]ccc23)n1` [Compound A13], the IC50 against ATR kinase was found to be 88 nM; in the test with MV4-11 (leukemia), 2.2 µM.
On to `Cc1nn(-c2cnccc2F)c(C)c1-c1cc(N2CCOC[C@H]2C)nc(-c2cc(F)cc3[nH]ccc23)n1` [Compound A14], for which the IC50 at ATR kinase was found to be 9 nM; in the test on TOV21G (ovarian cancer), 0.522 µM; in the test with MV4-11 (leukemia), 0.231 µM.
For `Cc1nn(-c2ccnnc2)c(C)c1-c1cc(N2CCOC[C@H]2C)nc(-c2cc(F)cc3[nH]ccc23)n1` [Compound A15], in that order: 2 nM, 0.234 µM and 0.107 µM.
For `Cc1nn(-c2cccnn2)c(C)c1-c1cc(N2CCOC[C@H]2C)nc(-c2cc(F)cc3[nH]ccc23)n1` [Compound A16], in that order: 1 nM, 0.166 µM and 0.082 µM.
For `Cc1nn(-c2cncc(Cl)c2)c(C)c1-c1cc(N2CCOC[C@H]2C)nc(-c2ccnc3[nH]ccc23)n1` [Compound A18], in that order: 1 nM, 0.208 µM and 0.451 µM.
`Cc1c(-c2cc(N3CCOC[C@H]3C)nc(-c3ccnc4[nH]ccc34)n2)c(C(F)(F)F)nn1-c1cncc(F)c1` [Compound A20]: the IC50 on ATR kinase worked out at 11 nM; with TOV21G (ovarian cancer) it was 0.284 µM; in the test with MV4-11 (leukemia), 0.528 µM.
Compound `Cc1nn(-c2ccc(=O)[nH]c2)c(C)c1-c1cc(N2CCOC[C@H]2C)nc(-n2c(NCCO)nc3ccccc32)n1` [Compound B13] gave an IC50 against ATR kinase of 5 nM.
